11 molecules from ChEMBL document CHEMBL3792378, “Design, synthesis and cytotoxicity of pyrano[4,3-b]indol-1(5H)-ones: A hybrid pharmacophore approach via gold catalyzed cyclization” (Bioorg Med Chem Lett, 2016) can be followed below.

A word on the IC50: it is the concentration that gives 50% inhibition.

This test has as its system HeLa. The experiment in a line: Cytotoxicity against human HeLa cells incubated for 48 hrs by MTT assay. The class given is functional, cell-based. A general note: Formazan colour is commonly taken as a measure of viable cells.
`O=c1oc(CCCO)cc2c1c1ccccc1n2Cc1ccccc1`: the half-inhibitory concentration (IC50) is 2250 nM. As for `CCCCc1cc2c(c(=O)o1)c1ccccc1n2C`, the figure is 1920 nM. As for `CCCCc1cc2c(c(=O)o1)c1ccccc1n2CC`, the figure is 1890 nM; as for `O=c1oc(-c2ccccc2)cc2[nH]c3ccccc3c12`, 2550 nM; as for `CCCCn1c2ccccc2c2c(=O)oc(-c3ccccc3)cc21`, 1110 nM. To `CCCCc1cc2c(c(=O)o1)c1ccccc1n2Cc1ccccc1` belongs 1750 nM. Turning to `CCCCCc1cc2c(c(=O)o1)c1ccccc1n2Cc1ccccc1`, 1630 nM corresponded to half-maximal inhibition (IC50). The IC50 values of the last two molecules are within 1.5-fold of each other. To `CCn1c2ccccc2c2c(=O)oc(-c3ccccc3)cc21` belongs 1410 nM; to `Cn1c2ccccc2c2c(=O)oc(-c3ccccc3)cc21`, 1240 nM; to `CC(C)(O)c1cc2c(c(=O)o1)c1ccccc1n2Cc1ccccc1`, 2020 nM.

In turn, `O=c1oc(-c2ccccc2)cc2c1c1ccccc1n2Cc1ccccc1` displayed an IC50 of 690 nM.
